Reference: patent US5039670A, “Antithrombotic substituted cycloalkano(B)dihydroindole- and -indole-sulphonamides and use” (Bayer Aktiengesellschaft, priority 1989, dated 1991)

Tested on: thrombocyte aggregation
Assay: Inhibition of collagen-triggered thrombocyte aggregation in platelet-rich citrated plasma (turbidometry, aggregometer)
Type: cell-based
Settings: Homo sapiens, 0.1 h, 37° C., response after 6 minutes, read-out: EC (limiting concentration, range of the minimum effective concentration)
Protocol: To determine the action as an inhibitor of thrombocyte aggregation, blood was used from healthy subjects of both sexes. 9 parts of blood were treated with one part of 3.8% strength aqueous sodium citrate solution as an anticoagulant. From this blood, platelet-rich citrated plasma (PRP)^1 is obtained (Jurgens/Beller, Klinische Methoden der Blutgerinnungsanalyse [Clinical Methods in Blood Coagulation Analysis]; Thieme Verlag, Stuttgart, 1959).
For these assays, 0.8 ml of (PRP)^1 and 0.1 ml of the active compound solution were preincubated at 37° C. in a water bath. The thrombocyte aggregation was then determined in an aggregometer at 37° C. (Therapeutische Berichte 47, 80-86, 1975) by means of turbidometry (Born, G.V.R., J. Physiol. (London), 162, 67, 1962). For this purpose, the preincubated sample was treated with 0.1 ml of collagen, an agent which triggers aggregations. The (PRP)^1 sample underwent changes in optical density, which was recorded during a period of 6 minutes, and the response was determined after 6 minutes. From this, the inhibition compared with the control is calculated as a percentage. The limiting concentration given is the range of the minimum effective concentration.

In the case of `O=C(O)CCn1c2c(c3cc(F)cc(F)c31)CC(NS(=O)(=O)c1ccc(Cl)cc1)CC2` (stereo not drawn) [Example 4], the minimal effective concentration is reported as 0.01 to 0.03 µg/mL.
For `CCOC(=O)CCn1c2c(c3cc(F)ccc31)CC(NS(=O)(=O)c1ccc(Cl)cc1)CC2` (stereo not drawn) [Example 8], the minimal effective concentration was 0.3 to 1 µg/mL.
`NC(=O)CCn1c2c(c3cc(F)ccc31)CC(NS(=O)(=O)c1ccc(Cl)cc1)CC2` (stereo not drawn) [Example 15] gave a minimal effective concentration of 0.01 to 0.03 µg/mL.
